Measured values taken from US7956069B2, “Compounds” (AstraZeneca AB, priority 2006, dated 2011).

Target: T1, cloned human M2 receptor (Homo sapiens, UniProt P08172)
T1 construct: purchased Perkin-Elmer RBHM2M; host or cells: Chinese hamster ovary cells (CHO)
T1 sequence (P08172 1-466): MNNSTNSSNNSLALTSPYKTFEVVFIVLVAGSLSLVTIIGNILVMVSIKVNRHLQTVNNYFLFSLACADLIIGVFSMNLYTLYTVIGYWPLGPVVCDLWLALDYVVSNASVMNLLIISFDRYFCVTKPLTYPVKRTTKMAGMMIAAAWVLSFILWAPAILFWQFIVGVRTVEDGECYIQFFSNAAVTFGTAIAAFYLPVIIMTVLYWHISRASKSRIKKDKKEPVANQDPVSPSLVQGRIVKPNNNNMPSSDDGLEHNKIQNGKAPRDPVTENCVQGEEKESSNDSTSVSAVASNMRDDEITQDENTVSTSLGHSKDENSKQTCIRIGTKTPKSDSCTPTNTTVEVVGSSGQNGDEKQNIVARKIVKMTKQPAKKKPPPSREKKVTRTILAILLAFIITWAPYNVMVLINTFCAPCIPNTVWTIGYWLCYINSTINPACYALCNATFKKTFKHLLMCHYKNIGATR
Assay: hM2 receptor GTPγS binding
Assay type: biochemical
Conditions: CHO membranes, [35S]GTPγS binding
Procedure: hM2 Receptor GTPγS Binding
Membranes produced from Chinese hamster ovary cells (CHO) expressing the cloned human M2 receptor (human Muscarinic receptor subtype 2, gene bank access NM_000739), were obtained from Perkin-Elmer (RBHM2M). The membranes were thawed at 37° C., passed 3 times through a 23-gauge blunt-end needle, diluted in the GTPγS binding buffer (50 mM Hepes, 20 mM NaOH, 100 mM NaCl, 1 mM EDTA, 5 mM MgCl2, pH 7.4, 100 μM DTT). The EC50, IC50 and Emax of the compounds of the invention were evaluated from 10-point dose-response curves (three fold concentration range) done in 60 μl in 384-well non-specific binding surface plate (Corning). Ten microliters from the dose-response curves plate (5× concentration) were transferred to another 384 well plate containing the following: 10 μg of hM2 membranes, 500 μg of Flashblue beads (Perkin-Elmer) and GDP in a 25 μl volume. An additional 15 μl containing 3.3× (55000 dpm) of GTPγ^35S (0.4 nM final) were added to the wells resulting in a total well volume of 50 μl. Basal and maximal stimulated [^35S]GTPγS binding were determined in absence and presence of 30 μM of acetylcholine agonist. The membranes/beads mix were pre-incubated for 15 minutes at room temperature with 25 μM GDP prior to distribution in plates (12.5 μM final). The reversal of acetylcholine-induced stimulation (2 μM final) of [^35S]GTPγS binding was used to assay the antagonist properties (IC50) of the compounds. The plates were incubated for 60 minutes at room temperature with shaking, then centrifuged at 2000 rpm for 5 minutes. The radioactivity (cpm) were counted in a Trilux (Perkin-Elmer).
Values of EC50, IC50 and Emax were obtained using sigmoidal fits of a non-linear curve-fitting program (XLfit version 5.0.6 from ID Business Solutions Limited, Guildford, UK) of percent stimulated [^35S]GTPγS binding vs. log(molar ligand).
All EC50 and IC50 values are reported as arithmetic means ± standard error of mean of ‘n’ independent experiments. […] The IC50 was the concentration of the compound of the invention at which 50% inhibition of acetylcholine [^35S]GTPγS binding stimulation has been observed.

EC50 [nM] | SMILES
120 | CCOC(=O)N1CCC(N2CCC(N3C(=O)N[C@H]4CCCC[C@@H]43)CC2)CC1
> 30000 | COc1ccccc1C(=O)N1CCC(N2CCC(N3C(=O)N[C@@H]4CCCC[C@H]43)CC2)CC1
760 | CC(C)OC(=O)N1CCC(N2CCC(N3C(=O)N[C@H]4CCCC[C@@H]43)CC2)CC1
500 | O=C1CCCN1CCC(=O)N1CCC(N2CCC(N3C(=O)N[C@H]4CCCC[C@@H]43)CC2)CC1
1000 | O=C1CCCN1CCC(=O)N1CCC(N2CCC(N3C(=O)N[C@@H]4CCCC[C@H]43)CC2)CC1
2600 | O=C(C1CCCC1)N1CCC(N2CCC(N3C(=O)N[C@H]4CCCC[C@@H]43)CC2)CC1
1200 | CC(C)OC(=O)N1CCC(N2CCC(N3C(=O)C[C@H]4CCCC[C@@H]43)CC2)CC1

The next lines start with the molecule.

SMILES | EC50 [nM]
CCOC(=O)N1CC[C@H](N2CCC(N3C(=O)N[C@H]4CCCC[C@@H]43)CC2)C1 | 7300
CC(C)OC(=O)N1CCC(N2CCC(N3C(=O)N[C@@H]4CCCC[C@@H]43)CC2)CC1 | 2500
O=C(C1CC1)N1CCC(N2CCC(N3C(=O)N[C@@H]4CCCC[C@H]43)CC2)CC1 | > 30000
CN1C(=O)N(C2CCN(C3CCN(C(=O)C4CC4)CC3)CC2)[C@H]2CCCC[C@@H]21 | > 30000
O=C(OCCF)N1CCC(N2CCC(N3C(=O)N[C@H]4CCCC[C@@H]43)CC2)CC1 | 380
